Key:
[1] = Drug substance properties; format: physicochemical; settings: 10 mg/ml aqueous solution
Experimental: Cyanocobalamin (CN-Cbl) is a cobalt containing vitamin and is reported to be sparingly soluble in water in the order of 1:80 or ˜12.5 mg/ml (Merck Index 1996). […] The material appears as dark red crystals or as an amorphous or crystalline red powder. It has a melting point of 300° C. and a molecular weight of 1355.38. The pH of a 10 mg/ml aqueous solution is 5.02.

[2] = Stability of CN-Cbl solutions stored at room temperature (3 days, 2 weeks); format: physicochemical; settings: for Conc of CN-Cbl: After 2 weeks at Room Temperature; for concentration of CN-Cbl: After 3 days at Room Temperature
Experimental: To determine the stability of the various solutions, the clarified stocks were aliquoted into fresh tubes and stored at room temperature, protected from light, for up to two weeks. Prior to measuring the concentrations of CN-Cbl on subsequent occasions, the tubes were centrifuged for ten minutes at rcf 16,100. The concentration of CN-Cbl was measured as described above by spectrophotometry.
In the experiments described above, the concentration of CN-Cbl was measured within an hour or two after the components of the solutions were initially combined. To determine the stability of the preparations, the concentrations of CN-Cbl were measured in individual excipients after three days and the concentrations of CN-Cbl in combined excipients were measured after two weeks. Tables 3A-3B are tables showing the concentrations of CN-Cbl (mg/ml) in various solutions after three days incubation at room temperature. Solutions containing 0-60% propylene glycol (Table 3A) and solutions containing 0-40% ethanol (Table 3B) were challenged with 50, 75, 100, and 125 mg/ml CN-Cbl. Table 4 is a table showing the concentrations of CN-Cbl in excipients containing ethanol and propylene glycol after two weeks incubation at room temperature. The solutions were challenged with either 50 or 75 mg/ml CN-Cbl and the excipients contained ethanol (10, 15, or 20%) and propylene glycol (20, 30, or 40%). […] Regardless of the diminution in concentration over time, however, it was hypothesized that the initial concentrations of CN-Cbl could be restored with an additional application of energy (e.g., mixing, heating, or both mixing and heating; see below).

pH of aqueous solution [1]: 5.02
Conc of CN-Cbl ([2]; challenge 50 mg/mL, ethanol 10%, PG 20% (v/v)): 26680 µg/mL
Conc of CN-Cbl ([2]; challenge 50 mg/mL, ethanol 10%, PG 30% (v/v)): 39460 µg/mL
Conc of CN-Cbl ([2]; challenge 50 mg/mL, ethanol 10%, PG 40% (v/v)): 50650 µg/mL
Conc of CN-Cbl ([2]; challenge 50 mg/mL, ethanol 15%, PG 20% (v/v)): 48720 µg/mL
Conc of CN-Cbl ([2]; challenge 50 mg/mL, ethanol 15%, PG 30% (v/v)): 49780 µg/mL
Conc of CN-Cbl ([2]; challenge 50 mg/mL, ethanol 15%, PG 40% (v/v)): 49390 µg/mL
Conc of CN-Cbl ([2]; challenge 50 mg/mL, ethanol 20%, PG 20% (v/v)): 47080 µg/mL
Conc of CN-Cbl ([2]; challenge 50 mg/mL, ethanol 20%, PG 30% (v/v)): 49780 µg/mL
Conc of CN-Cbl ([2]; challenge 50 mg/mL, ethanol 20%, PG 40% (v/v)): 49870 µg/mL
Conc of CN-Cbl ([2]; challenge 75 mg/mL, ethanol 10%, PG 20% (v/v)): 26910 µg/mL
Conc of CN-Cbl ([2]; challenge 75 mg/mL, ethanol 10%, PG 30% (v/v)): 35210 µg/mL
Conc of CN-Cbl ([2]; challenge 75 mg/mL, ethanol 10%, PG 40% (v/v)): 55660 µg/mL
Conc of CN-Cbl ([2]; challenge 75 mg/mL, ethanol 15%, PG 20% (v/v)): 33280 µg/mL
Conc of CN-Cbl ([2]; challenge 75 mg/mL, ethanol 15%, PG 30% (v/v)): 43310 µg/mL
Conc of CN-Cbl ([2]; challenge 75 mg/mL, ethanol 15%, PG 40% (v/v)): 74280 µg/mL
Conc of CN-Cbl ([2]; challenge 75 mg/mL, ethanol 20%, PG 20% (v/v)): 38390 µg/mL
Conc of CN-Cbl ([2]; challenge 75 mg/mL, ethanol 20%, PG 30% (v/v)): 59620 µg/mL
Conc of CN-Cbl ([2]; challenge 75 mg/mL, ethanol 20%, PG 40% (v/v)): 75820 µg/mL
concentration of CN-Cbl ([2]; challenge 50 mg/ml, PG 0% v/v): 13600 µg/mL
concentration of CN-Cbl ([2]; challenge 50 mg/ml, PG 10% v/v): 19500 µg/mL
concentration of CN-Cbl ([2]; challenge 50 mg/ml, PG 20% v/v): 25300 µg/mL
concentration of CN-Cbl ([2]; challenge 50 mg/ml, PG 30% v/v): 31000 µg/mL
concentration of CN-Cbl ([2]; challenge 50 mg/ml, PG 40% v/v): 50000 µg/mL
concentration of CN-Cbl ([2]; challenge 50 mg/ml, PG 50% v/v): 49900 µg/mL
concentration of CN-Cbl ([2]; challenge 50 mg/ml, PG 60% v/v): 51500 µg/mL
concentration of CN-Cbl ([2]; challenge 75 mg/ml, PG 0% v/v): 15000 µg/mL
concentration of CN-Cbl ([2]; challenge 75 mg/ml, PG 10% v/v): 20100 µg/mL
concentration of CN-Cbl ([2]; challenge 75 mg/ml, PG 20% v/v): 25800 µg/mL
concentration of CN-Cbl ([2]; challenge 75 mg/ml, PG 30% v/v): 30500 µg/mL
concentration of CN-Cbl ([2]; challenge 75 mg/ml, PG 40% v/v): 40500 µg/mL
concentration of CN-Cbl ([2]; challenge 75 mg/ml, PG 50% v/v): 67000 µg/mL
concentration of CN-Cbl ([2]; challenge 75 mg/ml, PG 60% v/v): 75800 µg/mL
concentration of CN-Cbl ([2]; challenge 100 mg/ml, PG 0% v/v): 14900 µg/mL
concentration of CN-Cbl ([2]; challenge 100 mg/ml, PG 10% v/v): 19500 µg/mL
concentration of CN-Cbl ([2]; challenge 100 mg/ml, PG 20% v/v): 25000 µg/mL
concentration of CN-Cbl ([2]; challenge 100 mg/ml, PG 30% v/v): 28800 µg/mL
concentration of CN-Cbl ([2]; challenge 100 mg/ml, PG 40% v/v): 37600 µg/mL
concentration of CN-Cbl ([2]; challenge 100 mg/ml, PG 50% v/v): 55900 µg/mL
concentration of CN-Cbl ([2]; challenge 100 mg/ml, PG 60% v/v): 97200 µg/mL
concentration of CN-Cbl ([2]; challenge 125 mg/ml, PG 0% v/v): 14500 µg/mL
concentration of CN-Cbl ([2]; challenge 125 mg/ml, PG 10% v/v): 20400 µg/mL
Substance: cyanocobalamin [CN-Cbl]
